As a reminder, the DC50 is the concentration at which degradation of the target reaches its halfway point. The low end stands for a more potent degrader, the high end for a less potent degrader. A word on the Dmax: it is the greatest extent of degradation seen.

The test has as its target T1, Cbl-B (Homo sapiens, UniProt Q13191).
T1 construct: MSD-Based Assay for Degradation of Cbl-B in THP-1 Cells; endogenous in cells; host or cells: THP-1 (title) / Jurkat (protocol text)
The test is described as follows: MSD-based assay for degradation of Cbl-B in THP-1 cells. In kind it is cell-based. In outline:
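Reported Dmax bins are A >70%, B 50–70%, C 30–50% and D <30%, from an electrochemiluminescence (MSD) sandwich assay of Cbl-B in cell lysates. THP-1 cells were exposed to compounds for 24 hours before lysis.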

Setting [1] is: Cbl-B degradation, Jurkat cells seeded (heading: THP-1 cells), 24 hours incubation, MSD readout.
Setting [2] is: Cbl-B degradation, Jurkat cells seeded (heading: THP-1 cells), 24 hours incubation, MSD readout, read-out: Dmax.

Molecules are shown by their SMILES. Where two headings read alike, the source gives them in different places.

T1 sequence (Q13191 whole entry): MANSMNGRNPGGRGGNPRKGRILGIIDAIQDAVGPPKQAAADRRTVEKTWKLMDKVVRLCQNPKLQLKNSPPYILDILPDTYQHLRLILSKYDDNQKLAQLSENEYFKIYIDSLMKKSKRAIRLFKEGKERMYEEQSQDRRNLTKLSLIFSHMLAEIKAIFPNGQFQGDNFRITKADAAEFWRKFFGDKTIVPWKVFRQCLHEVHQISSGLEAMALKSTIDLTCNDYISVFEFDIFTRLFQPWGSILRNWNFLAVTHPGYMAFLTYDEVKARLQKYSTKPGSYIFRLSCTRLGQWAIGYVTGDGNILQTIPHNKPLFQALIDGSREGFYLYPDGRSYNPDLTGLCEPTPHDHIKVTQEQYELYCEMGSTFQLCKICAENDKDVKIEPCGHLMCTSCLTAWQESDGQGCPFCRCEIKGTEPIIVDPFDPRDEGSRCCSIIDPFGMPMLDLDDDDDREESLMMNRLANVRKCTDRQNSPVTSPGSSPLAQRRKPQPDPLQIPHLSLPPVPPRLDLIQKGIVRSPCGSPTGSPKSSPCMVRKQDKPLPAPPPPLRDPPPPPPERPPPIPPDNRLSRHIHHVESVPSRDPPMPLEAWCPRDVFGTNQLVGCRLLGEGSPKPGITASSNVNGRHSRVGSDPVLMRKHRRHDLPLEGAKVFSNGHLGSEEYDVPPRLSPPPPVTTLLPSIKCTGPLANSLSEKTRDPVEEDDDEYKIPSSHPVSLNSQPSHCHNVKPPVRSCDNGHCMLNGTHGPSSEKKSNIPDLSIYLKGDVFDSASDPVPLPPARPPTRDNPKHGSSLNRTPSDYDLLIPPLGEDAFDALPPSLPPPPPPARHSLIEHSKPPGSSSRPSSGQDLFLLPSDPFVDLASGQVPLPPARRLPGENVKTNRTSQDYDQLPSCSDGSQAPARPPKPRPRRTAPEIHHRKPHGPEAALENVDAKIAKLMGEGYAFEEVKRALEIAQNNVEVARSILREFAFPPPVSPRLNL

In the case of `Cn1cnnc1[C@@H](c1cccc(-n2cc3c(C(F)(F)F)cc(CN4CCC(CC(=O)N5CCC(CC6CCN(c7ccc8c(c7)CN([C@H]7CCC(=O)NC7=O)C8=O)CC6)CC5)CC4)cn3c2=O)c1)C1CCC1` [Compound 176], the DC50 under setting [1] is under 30 nM. Besides, the Dmax under setting [2] is over 70%.

For `Cn1cnnc1[C@@H](c1cccc(-n2cc3c(C(F)(F)F)cc(CN4CCC(CC(=O)N5CCC(Cc6ccc(-c7ccc8c(c7)CN([C@@H]7CCC(=O)NC7=O)C8=O)cc6)CC5)CC4)cn3c2=O)c1)C1CCC1` [Compound 179], the DC50 under setting [1] was in the range of 300 to 1000 nM. Besides, the Dmax (THP-1) is 30 to 50%.

Molecule `Cn1cnnc1[C@@H](c1cccc(-n2cc3c(C(F)(F)F)cc(CN4CCC(CC(=O)N5CCC(Cc6ccc(-c7ccc8c(c7)CN([C@H]7CCC(=O)NC7=O)C8=O)cc6)CC5)CC4)cn3c2=O)c1)C1CCC1` [Compound 180] displayed a DC50 under setting [1] of under 30 nM. For the setting “THP-1”, this molecule returned a Dmax of over 70%.

`Cn1cnnc1[C@@H](c1cccc(-n2cc3c(C(F)(F)F)cc(CN4CCC(CC(=O)N5CCC(c6ccc(-c7ccc8c(c7)CN([C@@H]7CCC(=O)NC7=O)C8=O)cc6)CC5)CC4)cn3c2=O)c1)C1CCC1` [Compound 181] had a DC50 under setting [1] of 300 to 1000 nM. Further, for the setting “THP-1”, the Dmax was in the range of 30 to 50%.

Molecule `Cn1cnnc1[C@@H](c1cccc(-n2cc3c(C(F)(F)F)cc(CN4CCC(CC(=O)N5CCC(c6ccc(-c7ccc8c(c7)CN([C@H]7CCC(=O)NC7=O)C8=O)cc6)CC5)CC4)cn3c2=O)c1)C1CCC1` [Compound 182] showed a DC50 under setting [1] of under 30 nM. The Dmax under setting [2] fell in the range of 30 to 50%.

In the case of `CN(CC1CCN(Cc2cc3c(c(C(F)(F)F)c2)CN(c2cccc([C@H](c4nncn4C)C4CCC4)c2)C3=O)CC1)C(=O)c1ccc(N2CCN(c3ccc4c(c3)CN([C@@H]3CCC(=O)NC3=O)C4=O)CC2)cc1` [Compound 183], under setting [1], the DC50 was in the range of 30 to 300 nM. Besides, under setting [2], the Dmax is 50 to 70%.

In the case of `CN(CC1CCN(Cc2cc3c(c(C(F)(F)F)c2)CN(c2cccc([C@H](c4nncn4C)C4CCC4)c2)C3=O)CC1)C(=O)c1ccc(N2CCN(c3ccc4c(c3)CN([C@H]3CCC(=O)NC3=O)C4=O)CC2)cc1` [Compound 184], under setting [1], the half-maximal degradation concentration (DC50) was under 30 nM. Moreover, the Dmax under setting [2] was over 70%.

As to `Cn1cnnc1[C@@H](c1cccc(N2Cc3c(cc(CN4CCC[C@H](OCc5ccc(CC6CCN(c7ccc8c(c7)CN([C@H]7CCC(=O)NC7=O)C8=O)CC6)cc5)C4)cc3C(F)(F)F)C2=O)c1)C1CCC1` [Compound 190], the DC50 under setting [1] fell in the range of 300 to 1000 nM. Further, the Dmax under setting [2] lay within 30 to 50%.

Regarding `Cn1cnnc1CC1(c2cccc(-n3cc4c(C(F)(F)F)cc(CN5CCN(CCc6ccc(N7CCN(c8ccc9c(c8)CN([C@@H]8CCC(=O)NC8=O)C9=O)CC7)cc6)CC5)cn4c3=O)c2)COC1` [Compound 203], under setting [1], the DC50 was under 30 nM. For the same molecule, the Dmax under setting [2] was over 70%.

As for `Cn1cnnc1CC1(c2cccc(-n3cc4c(C(F)(F)F)cc(CN5CCC(COCc6ccc(CN7CCN(c8ccc9c(c8)CN([C@@H]8CCC(=O)NC8=O)C9=O)CC7)cc6)CC5)cn4c3=O)c2)COC1` [Compound 215], the DC50 under setting [1] lay within 1000 to 10000 nM. The Dmax under setting [2] was under 30%.

Under setting [1], `Cn1cnnc1CC1(c2cccc(-n3cc4c(C(F)(F)F)cc(CN5CCC(COCc6ccc(CN7CCN(c8ccc9c(c8)CN([C@H]8CCC(=O)NC8=O)C9=O)CC7)cc6)CC5)cn4c3=O)c2)COC1` [Compound 216] registered a half-maximal degradation concentration (DC50) of under 30 nM. Also, the Dmax under setting [2] is over 70%.

As for `CO[C@H]1C[C@](c2cccc(-n3cc4c(C(F)(F)F)cc(CN5CCC(OCCOCc6ccc(CN7CCN(c8ccc9c(c8)CN([C@@H]8CCC(=O)NC8=O)C9=O)CC7)cc6)CC5)cn4c3=O)c2)(c2nncn2C)C1` [Compound 221], under setting [1], the DC50 lay within 300 to 1000 nM. Moreover, under setting [2], the Dmax lay in the range of 30 to 50%.

As to `CO[C@H]1C[C@](c2cccc(-n3cc4c(C(F)(F)F)cc(CN5CCC(OCCOCc6ccc(CN7CCN(c8ccc9c(c8)CN([C@H]8CCC(=O)NC8=O)C9=O)CC7)cc6)CC5)cn4c3=O)c2)(c2nncn2C)C1` [Compound 222], under setting [1], the DC50 was under 30 nM. Further, under setting [2], the Dmax was over 70%.

The molecule `CO[C@H]1C[C@](c2cccc(-n3cc4c(C(F)(F)F)cc(CN5CCC(COCc6ccc(CN7CCN(c8ccc9c(c8)CN([C@@H]8CCC(=O)NC8=O)C9=O)CC7)cc6)CC5)cn4c3=O)c2)(c2nncn2C)C1` [Compound 223] gave a DC50 under setting [1] of 30 to 300 nM. The Dmax under setting [2] was in the range of 30 to 50%.

With `CO[C@H]1C[C@](c2cccc(-n3cc4c(C(F)(F)F)cc(CN5CCC(COCc6ccc(CN7CCN(c8ccc9c(c8)CN([C@H]8CCC(=O)NC8=O)C9=O)CC7)cc6)CC5)cn4c3=O)c2)(c2nncn2C)C1` [Compound 224], the DC50 under setting [1] was under 30 nM. For the same molecule, under setting [2], the Dmax lay within 50 to 70%.

As for `Cn1cnnc1[C@@H](c1cccc(-n2cc3c(C(F)(F)F)cc(CN4CCN(CCc5ccc(C6CCN(c7ccc8c(c7)CN([C@@H]7CCC(=O)NC7=O)C8=O)CC6)cc5)CC4)cn3c2=O)c1)C1CCC1` [Compound 227], the half-maximal degradation concentration (DC50) under setting [1] lay within 30 to 300 nM. Further, the Dmax under setting [2] lay in the range of 50 to 70%.

`Cn1cnnc1CC1(c2cccc(-n3cc4c(C(F)(F)F)cc(CN5CCN(CCc6ccc(C7CCN(c8ccc9c(c8)CN([C@H]8CCC(=O)NC8=O)C9=O)CC7)cc6)CC5)cn4c3=O)c2)COC1` [Compound 230] showed a DC50 under setting [1] of under 30 nM.

As for `Cn1cnnc1[C@@H](c1cccc(-n2cc3c(C(F)(F)F)cc(CN4CCC[C@H](COCc5ccc(CN6CCN(c7ccc8c(c7)CN([C@@H]7CCC(=O)NC7=O)C8=O)CC6)cc5)C4)cn3c2=O)c1)C1CCC1` [Compound 235], for the setting “THP-1”, the maximal degradation (Dmax) was in the range of 30 to 50%.

Take `Cn1cnnc1[C@@H](c1cccc(-n2cc3c(C(F)(F)F)cc(CN4CCC(OC(=O)N5CCC(CN6CCN(c7ccc8c(c7)CN([C@@H]7CCC(=O)NC7=O)C8=O)CC6)CC5)CC4)cn3c2=O)c1)C1CCC1` [Compound 237]: the DC50 under setting [1] is 30 to 300 nM. For the setting “THP-1”, this molecule returned a Dmax of 50 to 70%.

`Cn1cnnc1[C@@H](c1cccc(-n2cc3c(C(F)(F)F)cc(CN4CCC(OC(=O)N5CCC(CN6CCN(c7ccc8c(c7)CN([C@H]7CCC(=O)NC7=O)C8=O)CC6)CC5)CC4)cn3c2=O)c1)C1CCC1` [Compound 238] displayed a DC50 under setting [1] of under 30 nM. This molecule also returned a Dmax (THP-1) of over 70%.

Turning to `CN(CC1CCN(Cc2cc(C(F)(F)F)c3cn(-c4cccc(C5(Cc6nncn6C)COC5)c4)c(=O)n3c2)CC1)C(=O)c1ccc(C2CCN(c3ccc4c(c3)CN([C@@H]3CCC(=O)NC3=O)C4=O)CC2)cc1` [Compound 241], under setting [1], the DC50 was under 30 nM. The Dmax under setting [2] lay within 50 to 70%.

`CN(CC1CCN(Cc2cc(C(F)(F)F)c3cn(-c4cccc(C5(Cc6nncn6C)COC5)c4)c(=O)n3c2)CC1)C(=O)c1ccc(C2CCN(c3ccc4c(c3)CN([C@H]3CCC(=O)NC3=O)C4=O)CC2)cc1` [Compound 242] showed a DC50 under setting [1] of under 30 nM. Further, the greatest degradation seen (Dmax) under setting [2] is over 70%.

As to `CO[C@H]1C[C@](c2cccc(-n3cc4c(C(F)(F)F)cc(CN5CCN(CCc6ccc(N7CCN(c8ccc9c(c8)CN([C@@H]8CCC(=O)NC8=O)C9=O)CC7)cc6)CC5)cn4c3=O)c2)(c2nncn2C)C1` [Compound 251], under setting [1], the DC50 lay within 30 to 300 nM. Also, the Dmax under setting [2] is over 70%.

As to `CO[C@H]1C[C@](c2cccc(-n3cc4c(C(F)(F)F)cc(CN5CCN(CCc6ccc(N7CCN(c8ccc9c(c8)CN([C@H]8CCC(=O)NC8=O)C9=O)CC7)cc6)CC5)cn4c3=O)c2)(c2nncn2C)C1` [Compound 252], the DC50 under setting [1] was under 30 nM. Besides, the Dmax under setting [2] is over 70%.

As for `Cn1cnnc1CC1(c2cccc(-n3cc4c(C(F)(F)F)cc(CN5CCC(CC(=O)N6CCC(CN7CCN(c8ccc9c(c8)CN([C@@H]8CCC(=O)NC8=O)C9=O)CC7)CC6)CC5)cn4c3=O)c2)COC1` [Compound 255], the DC50 under setting [1] lay within 30 to 300 nM. For the same molecule, the Dmax under setting [2] was over 70%.

Regarding `Cn1cnnc1CC1(c2cccc(-n3cc4c(C(F)(F)F)cc(CN5CCC(CC(=O)N6CCC(CN7CCN(c8ccc9c(c8)CN([C@H]8CCC(=O)NC8=O)C9=O)CC7)CC6)CC5)cn4c3=O)c2)COC1` [Compound 256], the DC50 under setting [1] is under 30 nM. Further, the Dmax (THP-1) was over 70%.

Turning to `Cn1cnnc1CC1(c2cccc(-n3cc4c(C(F)(F)F)cc(CN5CCC(CCN6CCC(CC7CCN(c8ccc9c(c8)CN([C@H]8CCC(=O)NC8=O)C9=O)CC7)CC6)CC5)cn4c3=O)c2)COC1` [Compound 260], the DC50 under setting [1] was 30 to 300 nM. Under setting [2], the Dmax is 30 to 50%.

As for `Cn1cnnc1CC1(c2cccc(-n3cc4c(C(F)(F)F)cc(CN5CCC(C6CCN(C(=O)c7ccc(N8CCN(c9ccc%10c(c9)CN([C@@H]9CCC(=O)NC9=O)C%10=O)CC8)cc7)CC6)CC5)cn4c3=O)c2)COC1` [Compound 261], the DC50 under setting [1] is under 30 nM. The Dmax (THP-1) is over 70%.

`Cn1cnnc1CC1(c2cccc(-n3cc4c(C(F)(F)F)cc(CN5CCC(C6CCN(C(=O)c7ccc(N8CCN(c9ccc%10c(c9)CN([C@H]9CCC(=O)NC9=O)C%10=O)CC8)cc7)CC6)CC5)cn4c3=O)c2)COC1` [Compound 262] gave a DC50 under setting [1] of under 30 nM. The same molecule had a Dmax (THP-1) of over 70%.

The values are drawn from US20250340552A1, “COMPOUNDS, COMPOSITIONS AND METHODS OF TREATING DISORDERS” (HOTSPOT THERAPEUTICS, INC., priority 2022, published 2025).
